In US20080105961A1, “Ligands of the Molecule Fit (Agt-121) and their Pharmaceutical Use” (priority 2004, published 2008):
Marks after values point to notes of the source that are not given here.

Assays:
[1] = target: T1, MC4R (Rattus norvegicus, UniProt P70596); experiment: Feeding response to MT II after ODN or saline infusion; format: in vivo, Sprague Dawley rats; conditions: for Δ FI: 24 hr food intake post minus pre injection; for Δ FI / 24 hr FI post injection / 24 hr FI pre injection: mean ± SEM; for 24 hr FI post injection: food intake after MT II or vehicle injection; for 24 hr FI pre injection: food intake, during ICV infusion, before MT II or vehicle injection
T1 construct: from tissue; host or cells: living Sprague Dawley rats (brain)
Description: To further investigate this relationship, antisense suppression of FIT in Sprague Dawley rats was again performed and these animals' responses to administration of the α-MSH analog MT II, a synthetic agonist of the MC4R and known suppressor of feeding. MT II effects on food intake and body weight in saline and jumbled ODN-treated control rats, as well as in FIT antisense-treated rats was measured.

[2] = test system: FIT mRNA; experiment: ICV infusion of FIT antisense ODN in Psammomys obesus: food intake and body weight; format: in vivo
Description: To further investigate the orexigenic properties of FIT intracerebroventricular (ICV) antisense suppression of FIT was performed. This involved the infusion of FIT antisense oligonucleotides (ODNs) directly into the lateral ventricle space of the brain to suppress endogenous FIT mRNA levels. The effects of this treatment on food intake and body weight were measured and compared to control animals infused with a jumbled sequence ODN, or saline alone. 18 week old, male, lean, normal glucose tolerant (nGT) P. obesus animals were utilised for this study and infused with either saline, FIT antisense ODN, or jumbled ODN at 24 μg/day for four days. The sequence of the FIT antisense ODN was 5′-mu*mg*mg*mc*ma*g*a*a*t*t*g*c*a*mu*mu*mc*mc*mu*-3′, and the jumbled ODN 5′-mc*mg*mc*ma*mc*t*t*a*g*c*t*a*c*mu*mu*mg*mc*mu-3′, where m indicates the presence of a 2′O-Methyl-modified base, and * indicates a phosphorothioate linkage.

[3] = test system: FIT mRNA; experiment: Metabolic heat production by indirect calorimetry (FIG. 1); format: in vivo, Sprague Dawley rats; conditions: Sprague Dawley rats, after three days of treatment
Text: FIG. 1 is a graphical representation of metabolic heat production in Sprague Dawley rats after three days of FIT antisense-treatment compared to jumbled ad libitum fed and jumbled pair fed rats. *p<0.05 pair fed compared to jumbled group, #p<0.05 pair fed compared to FIT antisense-treated group, ̂p<0.05 compared to both jumbled and FIT antisense-treated groups. Data are mean ±SEM.
To further dissect the nature of the inability to reduce TEE levels after FIT antisense treatment, metabolic heat production was measured by indirect calorimetry.

[4] = test system: FIT mRNA; experiment: Pair-feeding study with indirect calorimetry (24 h): body weight, food intake, total energy expenditure; format: in vivo, Sprague Dawley rats
Description: To investigate the mechanism of weight loss after FIT antisense treatment, a group of Sprague Dawley rats were pair fed to the average daily food intake levels of FIT antisense-treated rats, and indirect calorimetry (24 h) was performed before and after FIT antisense or jumbled ODN ICV infusion.
Total energy expenditure (TEE) was calculated from measurements of oxygen consumption and carbon dioxide production using indirect calorimetry (Ferrannini, 1988). Due to differences in body weight between the three groups of rats, TEE levels were calculated relative to whole body mass of the animals. […] FIT antisense-treated rats therefore have an inappropriately high level of energy expenditure for their body weight.

[5] = test system: FIT mRNA; experiment: Hypothalamic FIT gene expression by semi-quantitative RT-PCR in ICV antisense-treated rats; format: in vivo, Sprague Dawley rats; conditions: hypothalamus
Description: To confirm endogenous suppression of FIT in antisense-treated Sprague Dawley rats, FIT mRNA in the hypothalamus of these animals was measured.

[6] = test system: FIT mRNA; experiment: ICV infusion of FIT antisense ODN in Sprague Dawley rats: food intake and body weight; format: in vivo
Description: To confirm the appetite-suppressing and weight-reducing effects of central FIT suppression in an animal model other than P. obesus, the inventors performed the same experiments in Sprague Dawley rats. Male, 12 week old Sprague Dawley rats were infused with either saline, FIT antisense ODN, or jumbled ODN at 24 μg/day for four days. The sequence of the FIT antisense ODN and the jumbled ODN are the same as in Example 2 above.

[7] = test system: melanocortin receptor; experiment: Feeding response to ICV injection of SHU9119 after three days of ODN or saline infusion; format: in vivo, Sprague Dawley rats
Text: To further analyse the link between FIT and the melanocortin system, the feeding response of Sprague Dawley rats to an ICV injection of SHU9119, a melanocortin receptor antagonist and known feeding stimulator was investigated. After three days of FIT antisense treatment, jumbled oligonucleotide or saline infusion, responses were compared to rats receiving an ICV injection of saline vehicle rather than SHU9119.

[8] = test system: MC3R and MC4R; conditions: ICV infusion, mice (Murphy et al. 1998); cited from earlier work
[9] = target: T2, SH3GL2; endophilin 1 (human, UniProt Q99962 1-352); experiment: yeast two-hybrid screen of a human brain cDNA library (12 clones)
T2 construct: Prey clone from a human brain cDNA library; not shown: not specified
Text: (§1) The inventors utilised a yeast two-hybrid system which incorporates modifications by Chevray and Nathans (1992), and Vidal et al. (1996) to screen a human brain cDNA library.

[10] = test system: FIT gene expression; experiment: FIT gene expression in the hypothalamus of monogenic mouse models of obesity; format: in vivo; conditions: leptin-treated ob/ob mice, mean ± SEM
Description: To investigate the molecular pathway via which FIT affect food intake, FIT gene expression was measured in the hypothalamus of several different monogenic mouse models of obesity. […] FIT gene expression was not altered in other genetic models of obesity such as leptin deficient ob/ob mice, MC3R knockout mice and MC4R knockout mice.

[11] = target: T2, SH3GL2; endophilin 1; experiment: yeast two-hybrid screen of a human brain cDNA library (14 clones)
Text: as §1

[12] = ICV 24 μg/day, day 1, mean ± SEM
[13] = ICV 24 μg/day, day 2, mean ± SEM
[14] = ICV 24 μg/day, day 3, mean ± SEM
[15] = ICV 24 μg/day, day 4, mean ± SEM
[16] = baseline body weight, mean ± SEM
[17] = change compared to day 0, mean ± SEM
[18] = not pair fed (jumbled group ad libitum fed), mean ± SEM

T1 sequence (P70596 whole entry, the tested form may be a part): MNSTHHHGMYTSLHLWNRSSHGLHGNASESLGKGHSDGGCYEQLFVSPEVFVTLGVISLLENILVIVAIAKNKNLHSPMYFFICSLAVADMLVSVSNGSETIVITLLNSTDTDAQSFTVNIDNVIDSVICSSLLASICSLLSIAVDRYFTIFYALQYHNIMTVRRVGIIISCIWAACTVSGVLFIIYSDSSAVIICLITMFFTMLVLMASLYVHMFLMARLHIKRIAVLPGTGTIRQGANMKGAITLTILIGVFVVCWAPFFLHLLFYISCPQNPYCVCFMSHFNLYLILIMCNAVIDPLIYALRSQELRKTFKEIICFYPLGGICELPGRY
T2 sequence (Q99962 whole entry): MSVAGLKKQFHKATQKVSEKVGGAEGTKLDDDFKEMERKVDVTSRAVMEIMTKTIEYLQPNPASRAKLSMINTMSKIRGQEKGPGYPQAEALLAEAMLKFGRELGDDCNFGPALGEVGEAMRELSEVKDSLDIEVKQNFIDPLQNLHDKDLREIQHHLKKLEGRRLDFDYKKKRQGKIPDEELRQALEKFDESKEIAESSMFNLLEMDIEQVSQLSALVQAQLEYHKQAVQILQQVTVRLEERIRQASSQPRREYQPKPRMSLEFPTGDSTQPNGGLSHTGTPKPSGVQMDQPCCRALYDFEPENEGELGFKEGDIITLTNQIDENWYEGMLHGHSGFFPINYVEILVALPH

5′-mu*mg*mg*mc*ma*g*a*a*t*t*g*c*a*mu*mu*mc*mc*mu*-3′ [FIT antisense]
Δ FI [1]: −0.01 ± 0.01^c g/g BW
24 hr FI post injection [1]: 0.03 ± 0.01 g/g BW
24 hr FI pre injection [1]: 0.04 ± 0.01^d g/g BW
Cumulative food intake, Day 1 Food [2, 12]: 6.5 ± 1.6^a g
Cumulative food intake, Day 2 Food [2, 13]: 12.3 ± 2.9^a g
Cumulative food intake, Day 3 Food [2, 14]: 18.9 ± 3.9^a g
Cumulative food intake, Day 4 Food [2, 15]: 27.4 ± 4.4^a,b g
Day 1 BW ([2]; ICV 24 μg/day, mean ± SEM): 195 ± 7 g
Day 2 BW ([2]; ICV 24 μg/day, mean ± SEM): 194 ± 8 g
Day 3 BW ([2]; ICV 24 μg/day, mean ± SEM): 192 ± 7 g
Day 4 BW ([2]; ICV 24 μg/day, mean ± SEM): 190 ± 7 g
cumulative food intake compared to jumbled oligonucleotide-infused and saline-treated control animals ([2]; ICV, after four days of treatment): significantly reduced
Day 0 BW [2, 16]: 199 ± 7 g
Day 1 ΔBW [2, 17]: −4.5 ± 0.7^a g
Day 2 ΔBW [2, 17]: −5.7 ± 2.1^a g
Day 3 ΔBW [2, 17]: −7.7 ± 1.8^a g
Day 4 ΔBW [2, 17]: −9.2 ± 1.5^a,b g
metabolic heat production [3]: inability to reduce heat production
ability to reduce TEE levels ([4]; Sprague Dawley rats, TEE relative to whole body mass): unable to significantly reduce
Day 0 BW ([4]; not pair fed (jumbled group ad libitum fed), baseline, mean ± SEM): 408 ± 13 g
Day 4 BW [4, 18]: 338 ± 12^a,c g
Food Intake [4, 18]: 36.4 ± 11.2^a g
Δ BW [4, 18]: −70.0 ± 8.6^a,b g
Δ TEE ([4]; not pair fed, mean ± SEM): -67 ± 25 kJ/day/kg
Post TEE ([4]; not pair fed, total energy expenditure after ICV infusion, mean ± SEM): 525 ± 22 kJ/day/kg
Pre TEE ([4]; not pair fed, total energy expenditure before ICV infusion, mean ± SEM): 592 ± 30 kJ/day/kg
FIT gene expression ([5]; ICV-treated Sprague Dawley rats, mean ± SEM): 6.6 ± 1.0^a arbitrary units
FIT gene expression suppressed compared to jumbled-treated rats ([5]; Sprague Dawley rats): 20%
FIT gene expression suppressed compared to saline-treated rats ([5]; Sprague Dawley rats): 37%
Cumulative food intake, Day 1 Food [6, 12]: 8.6 ± 1.6^a,b g
Cumulative food intake, Day 2 Food [6, 13]: 23.4 ± 2.6^a,b g
Cumulative food intake, Day 3 Food [6, 14]: 38.3 ± 3.6^a,b g
Cumulative food intake, Day 4 Food [6, 15]: 55.0 ± 4.9^a,b g
Day 1 BW ([6]; ICV 24 μg/day, mean ± SEM): 425 ± 37 g
Day 2 BW ([6]; ICV 24 μg/day, mean ± SEM): 415 ± 37 g
Day 3 BW ([6]; ICV 24 μg/day, mean ± SEM): 410 ± 38^a g
Day 4 BW ([6]; ICV 24 μg/day, mean ± SEM): 408 ± 37^a g
Day 0 BW [6, 16]: 444 ± 37 g
Day 1 ΔBW [6, 17]: −19.6 ± 2.9^b g
Day 2 ΔBW [6, 17]: −28.8 ± 4.1^a,b g
Day 3 ΔBW [6, 17]: −34.4 ± 4.1^a,b g
Day 4 ΔBW [6, 17]: −36.6 ± 6.7^a,b g
Δ FI ([7]; 48 hr food intake post minus pre injection, mean ± SEM): 0.02 ± 0.01 g/g BW
48 hr FI post injection ([7]; food intake relative to body weight, after ICV SHU9119 or vehicle injection, mean ± SEM): 0.09 ± 0.01^b,d g/g BW
48 hr FI pre injection ([7]; food intake relative to body weight, during ICV infusion, before SHU9119 or vehicle injection, mean ± SEM): 0.07 ± 0.01^b g/g BW
feeding response after SHU9119 injection compared to jumbled-treated or saline-treated rats ([7]; relative to body weight): significantly increased

MT II
Δ FI [1]: −0.04 ± 0.01 g/g BW
24 hr FI post injection [1]: 0.03 ± 0.01^a g/g BW
24 hr FI pre injection [1]: 0.07 ± 0.01 g/g BW
inhibitory effect on food intake in rats pre-treated with FIT antisense ODN versus control groups ([1]; not statistically significantly different from control groups): tended to have a greater inhibitory effect
effect on food intake [8]: decrease food intake

B1: FIT-PR (FIT proline-rich region), yeast two-hybrid bait (other, not shown: small tags and cut ends)
chain: RPFPTGTPPPLPPKTVPATPPRTGSPLTVATGNDQAATEAKIEKPPSISDLDSIFGPVLSPKSVAVNTEETWVHFSDASPEHVTPELTPREKVVTPPAASDIPADSPTPGPPGPPGSAGPPGPPGPRNVPSPLNLEEVQKKVAEQTFIKDDYLETLSSPKECGLGQRATPPPPPPPTYRTVVSSPGPGSGSGTGTASGASSPARPATPLVPCSCSTPPPPPPRPPSRPKLPPGKPGVGDVSRPFSPPIHSSSPPPIAPL
notes: Truncated fragment of FIT used as bait in a yeast two-hybrid screen of a human brain cDNA library; also called AGT-121
binding result [9]: binds

B2: Leptin: leptin given to leptin deficient ob/ob mice (protein, UniProt P41160 22-167, looked up)
Leptin: VPIQKVQDDTKTLIKTIVTRINDISHTQSVSAKQRVTGLDFIPGLHPILSLSKMDQTLAVYQQVLTSLPSQNVLQIANDLENLRDLLHLLAFSKSCSLPQTSGLQKPESLDGVLEASLYSTEVVALSRLQGSLQDILQQLDVSPEC
FIT gene expression [10]: 1.3 ± 0.3 arbitrary units

B3: FIT-NP (FIT N-terminal plus proline-rich region), yeast two-hybrid bait (other, not shown: small tags and cut ends)
chain: MMEGLKKRTRKAFGIRKKEKDTDSTGSPDRDGMQPSPHELPYHSKAECAREGGKKASKKSNGAPNGFYAEIDWERYNSPELDEEGYSIRPEEPGSTKGKHFYSSSESEEEEESHKKFNIKIKPLQSKDILKNAATVDELKASIGNIALSPSPVRKSPRRSPGAIKRNLSSEEVARPRRSTPTPELTSKKPLDDTLALAPLFGPPLESAFDGHKTEVLLDQPEIWGSGQPVNPSMESPKLARPFPTGTPPPLPPKTVPATPPRTGSPLTVATGNDQAATEAKIEKPPSISDLDSIFGPVLSPKSVAVNTEETWVHFSDASPEHVTPELTPREKVVTPPAASDIPADSPTPGPPGPPGSAGPPGPPGPRNVPSPLNLEEVQKKVAEQTFIKDDYLETLSSPKECGLGQRETPPPPPPPTYRTVVSSPGPGSGSGTGTASGASSPARPATPLVPCSCSTPPPPPPRPPSRPKLPPGKPGVGDVSRPFSPPIHSSSPPPIAPL
notes: as for B1
binding result [11]: binds
